Measurements taken from patent US20240349726A1, “SUBSTITUTED 1,2,4-THIADIAZOLYL NICOTINAMIDES, SALTS OR N-OXIDES THEREOF AND THEIR USE AS HERBICIDALLY ACTIVE SUBSTANCES” (Bayer Aktiengesellschaft, priority 2021, published 2024).

Columns and labels:
Type in all cases: in vivo
Lolium rigidum [1] = assay: Herbicidal pre-emergence action, LOLRI; details: visual grading after ca. 3 weeks vs untreated controls
Text: (§1) Seeds of mono- and dicotyledonous weed plants were sown in plastic pots (double sowings with one species of mono- and one species of dicotyledonous weed plants per pot), in sandy loam, and covered with soil. The compounds according to the invention, formulated in the form of wettable powders (WP) or as emulsifiable concentrates (EC), were applied to the surface of the covering soil as an aqueous suspension or as an emulsion, with the addition of 0.5% of an additive, at an application rate of 600 litres of water per hectare (converted). Following treatment, the pots were placed in a greenhouse and kept under optimum growth conditions for the test plants. The visual grading of the damage to the test plants is carried out after ca. 3 weeks in comparison to untreated controls (herbicidal effect in percent (%): 100% effect=plants have died, 0% effect=as control plants). Seeds of mono- and dicotyledonous weed plants were sown in plastic pots (double sowings with one species of mono- and one species of dicotyledonous weed plants per pot), in sandy loam, and covered with soil. The compounds according to the invention, formulated in the form of wettable powders (WP) or as emulsifiable concentrates (EC), were applied to the surface of the covering soil as an aqueous suspension or as an emulsion, with the addition of 0.5% of an additive, at an application rate of 600 litres of water per hectare (converted). Following treatment, the pots were placed in a greenhouse and kept under optimum growth conditions for the test plants. The visual grading of the damage to the test plants is carried out after ca. 3 weeks in comparison to untreated controls (herbicidal effect in percent (%): 100% effect=plants have died, 0% effect=as control plants).

Matricaria inodora [2] = assay: Herbicidal pre-emergence action, MATIN; details: visual grading after ca. 3 weeks vs untreated controls
Text: as §1

Setaria viridis = assay: Herbicidal pre-emergence action, SETVI; details: 1280 g/ha, visual grading after ca. 3 weeks vs untreated controls
Text: Seeds of mono- and dicotyledonous weed plants were sown in plastic pots (double sowings with one species of mono- and one species of dicotyledonous weed plants per pot), in sandy loam, and covered with soil. The compounds according to the invention, formulated in the form of wettable powders (WP) or as emulsifiable concentrates (EC), were applied to the surface of the covering soil as an aqueous suspension or as an emulsion, with the addition of 0.5% of an additive, at an application rate of 600 litres of water per hectare (converted). Following treatment, the pots were placed in a greenhouse and kept under optimum growth conditions for the test plants. The visual grading of the damage to the test plants is carried out after ca. 3 weeks in comparison to untreated controls (herbicidal effect in percent (%): 100% effect=plants have died, 0% effect=as control plants).

Stellaria media [3] = assay: Herbicidal pre-emergence action, STEME; details: visual grading after ca. 3 weeks vs untreated controls
Text: as §1

Poa annua [4] = assay: Herbicidal pre-emergence action, POAAN; details: visual grading after ca. 3 weeks vs untreated controls
Text: as §1

Amaranthus retroflexus [5] = assay: Herbicidal pre-emergence action, AMARE; details: visual grading after ca. 3 weeks vs untreated controls
Text: as §1

Lolium rigidum [6] = assay: Herbicidal post-emergence action, LOLRI; details: 1280 g/ha, assessed visually after ca. 3 weeks vs untreated controls
Text: (§2) Seeds of mono- and dicotyledonous weed plants were sown in plastic pots (double sowings with one species of mono- and one species of dicotyledonous weed plants per pot), in sandy loam, covered with soil and grown under controlled growth conditions. 2 to 3 weeks after sowing, the test plants were sprayed in the single-leaf stage. The compounds according to the invention, formulated in the form of wettable powders (WP) or as emulsifiable concentrates (EC), were sprayed onto the green plant parts as an aqueous suspension or as an emulsion, with the addition of 0.5% of an additive, at an application rate of 600 litres of water per hectare (converted). The test plants were placed in the greenhouse for ca. 3 weeks under optimum growth conditions, and then the effect of the preparations is assessed visually in comparison with untreated controls (herbicidal effect in percent (%): 100% effect=plants have died, 0% effect=as control plants). […]

Matricaria inodora [7] = assay: Herbicidal post-emergence action, MATIN; details: assessed visually after ca. 3 weeks vs untreated controls
Text: as §2

Stellaria media [8] = assay: Herbicidal post-emergence action, STEME; details: assessed visually after ca. 3 weeks vs untreated controls
Text: as §2

Poa annua [9] = assay: Herbicidal post-emergence action, POAAN; details: assessed visually after ca. 3 weeks vs untreated controls
Text: as §2

Amaranthus retroflexus [10] = assay: Herbicidal post-emergence action, AMARE; details: assessed visually after ca. 3 weeks vs untreated controls
Text: as §2

Veronica persica [11] = assay: Herbicidal pre-emergence action, VERPE; details: 1280 g/ha, visual grading after ca. 3 weeks vs untreated controls
Text: as §1

Veronica persica [12] = assay: Herbicidal post-emergence action, VERPE; details: assessed visually after ca. 3 weeks vs untreated controls
Text: as §2

Alopecurus myosuroides = assay: Herbicidal post-emergence action, ALOMY; details: 1280 g/ha, assessed visually after ca. 3 weeks vs untreated controls
Text: as §2

Kochia scoparia = assay: Herbicidal post-emergence action, KCHSC; details: assessed visually after ca. 3 weeks vs untreated controls
Text: as §2

Abutilon theophrasti = assay: Herbicidal post-emergence action, ABUTH; details: assessed visually after ca. 3 weeks vs untreated controls
Text: as §2

SMILES | herbicidal effect LOLRI (Lolium rigidum [1]; 1280 g/ha) | herbicidal effect MATIN (Matricaria inodora [2]; 1280 g/ha) | herbicidal effect STEME (Stellaria media [3]; 320 g/ha) | herbicidal effect STEME (Stellaria media [3]; 1280 g/ha) | herbicidal effect POAAN (Poa annua [4]; 1280 g/ha) | herbicidal effect AMARE (Amaranthus retroflexus [5]; 1280 g/ha) | herbicidal effect MATIN (Matricaria inodora [7]; 1280 g/ha) | herbicidal effect STEME (Stellaria media [8]; 1280 g/ha) | herbicidal effect AMARE (Amaranthus retroflexus [10]; 1280 g/ha) | herbicidal effect VERPE (Veronica persica [12]; 1280 g/ha) | herbicidal effect AMARE (Amaranthus retroflexus [10]; 320 g/ha) | herbicidal effect KCHSC (Kochia scoparia; 1280 g/ha) | further results
O=C(Nc1ncns1)c1cnccc1C(F)(F)F [Example I-001] | 100% | 100% | 100% | 100% | 100% | 100% | 100% | 100% | 90% | – | – | – | herbicidal effect SETVI (Setaria viridis): 90%; herbicidal effect POAAN (Poa annua [4]; 320 g/ha): 100%; herbicidal effect AMARE (Amaranthus retroflexus [5]; 320 g/ha): 100%; herbicidal effect LOLRI (Lolium rigidum [6]): 90%; herbicidal effect MATIN (Matricaria inodora [7]; 320 g/ha): 90%; herbicidal effect STEME (Stellaria media [8]; 320 g/ha): 100%; herbicidal effect POAAN (Poa annua [9]; 320 g/ha): 100%; herbicidal effect POAAN (Poa annua [9]; 1280 g/ha): 100%
Cc1ccnc(Cl)c1C(=O)Nc1ncns1 [Example I-003] | – | 100% | – | 100% | 100% | 100% | – | 90% | 90% | 100% | 90% | – | herbicidal effect VERPE (Veronica persica [11]): 90%; herbicidal effect VERPE (Veronica persica [12]; 320 g/ha): 90%
CCc1ccnc(Cl)c1C(=O)Nc1ncns1 [Example I-004] | 100% | 90% | – | 100% | 90% | 90% | – | – | 100% | 100% | – | – | herbicidal effect POAAN (Poa annua [9]; 1280 g/ha): 100%
Cc1nsc(NC(=O)c2c(C(F)(F)F)ccnc2F)n1 [Example I-008] | – | – | – | 90% | – | 90% | – | 100% | 100% | 90% | – | – | herbicidal effect ALOMY (Alopecurus myosuroides): 90%; herbicidal effect STEME (Stellaria media [8]; 320 g/ha): 90%
COc1nccc(C(F)(F)F)c1C(=O)Nc1ncns1 [Example I-010] | 100% | 100% | – | 90% | 100% | – | – | – | 100% | 100% | 100% | 100% | herbicidal effect VERPE (Veronica persica [12]; 320 g/ha): 100%; herbicidal effect POAAN (Poa annua [9]; 320 g/ha): 90%; herbicidal effect POAAN (Poa annua [9]; 1280 g/ha): 90%
Cc1ccncc1C(=O)Nc1ncns1 [Example I-011] | – | 90% | 90% | 90% | 100% | 100% | – | – | – | – | – | – | herbicidal effect POAAN (Poa annua [4]; 320 g/ha): 90%
O=C(Nc1nc(C(F)(F)F)ns1)c1cnccc1C(F)(F)F [Example I-013] | – | – | – | – | – | 100% | 100% | 100% | 100% | 100% | 90% | 100% | herbicidal effect ABUTH (Abutilon theophrasti; 1280 g/ha): 100%; herbicidal effect MATIN (Matricaria inodora [7]; 320 g/ha): 100%; herbicidal effect VERPE (Veronica persica [12]; 320 g/ha): 100%
O=C(Nc1nc(Br)ns1)c1cnccc1C(F)(F)F [Example I-014] | – | – | – | – | – | – | 100% | 100% | 100% | 100% | – | 90% | herbicidal effect STEME (Stellaria media [8]; 320 g/ha): 90%
Cc1cc(Cl)nc(Cl)c1C(=O)Nc1ncns1 [Example I-020, 2,6-dichloro-4-methyl-N-(1,2,4-thiadiazol-5-yl)pyridine-3-carboxamide] | – | 90% | 90% | 100% | – | 90% | 90% | 90% | 90% | 100% | – | – | –
O=C(Nc1ncns1)c1c(C(F)(F)F)ccnc1Cl [Example I-021] | 100% | 100% | 90% | 100% | 100% | 100% | 100% | 100% | 100% | 100% | 100% | 100% | herbicidal effect LOLRI (Lolium rigidum [1]; 320 g/ha): 90%; herbicidal effect MATIN (Matricaria inodora [2]; 320 g/ha): 90%; herbicidal effect VERPE (Veronica persica [11]): 90%; herbicidal effect POAAN (Poa annua [4]; 320 g/ha): 90%; herbicidal effect ABUTH (Abutilon theophrasti; 320 g/ha): 90%; herbicidal effect ABUTH (Abutilon theophrasti; 1280 g/ha): 100%; herbicidal effect KCHSC (Kochia scoparia; 320 g/ha): 90%; herbicidal effect LOLRI (Lolium rigidum [6]): 90%; herbicidal effect MATIN (Matricaria inodora [7]; 320 g/ha): 100%; herbicidal effect STEME (Stellaria media [8]; 320 g/ha): 90%; herbicidal effect VERPE (Veronica persica [12]; 320 g/ha): 100%; herbicidal effect POAAN (Poa annua [9]; 1280 g/ha): 100%
Cc1ccnc(Br)c1C(=O)Nc1ncns1 [Example I-022, 2-bromo-4-methyl-N-(1,2,4-thiadiazol-5-yl)pyridine-3-carboxamide] | – | – | – | 100% | – | – | – | 90% | 90% | – | – | – | –
Cc1cc(F)ncc1C(=O)Nc1ncns1 [Example I-023] | – | 100% | – | 90% | 100% | 90% | – | – | 90% | – | – | – | –
O=C(Nc1ncns1)c1cnc(Cl)cc1C(F)(F)F [Example I-024] | – | 90% | – | – | – | – | 100% | – | 90% | 90% | – | – | herbicidal effect MATIN (Matricaria inodora [7]; 320 g/ha): 90%
CC(C)c1ccnc(Cl)c1C(=O)Nc1ncns1 [Example I-026, 2-chloro-4-isopropyl-N-(1,2,4-thiadiazol-5-yl)pyridine-3-carboxamide] | 100% | 100% | 90% | 100% | – | 100% | – | 100% | 100% | 90% | 90% | 90% | –
COc1nccc(C(C)C)c1C(=O)Nc1ncns1 [Example I-027] | – | – | – | 90% | – | – | – | – | – | – | – | – | –
